According to US4329460A, “Uracil derivatives and production thereof” (Takeda Chemical Industries, Ltd., priority 1976, dated 1982):
Values after ≈ are worked out from the molar mass of the structure shown.

Legend:
BAV3-infected C34 cells = assay: Inhibition of the induction of cell multiplication in BAV3-infected C34 cells; format: cell-based; details: Mus musculus, 96 h, (V-M) difference on 6th day after seeding, read-out: ED50, inhibition of cell growth
Protocol: (2) Inhibition of the induction of cell multiplication in BAV3-infected C34 cells
1×10^5 cells were suspended in 1 ml of Eagle's MEM+10% fetal calf serum (MEM.10 Fcs) and seeded in a glass dish (d=1.8 cm) containing a round coverslip (d=1.5 cm).
On the 2nd day after seeding, infection (37° C., 120 min.) (mock-infection or virus infection; in the case of the latter, multiplicity of infection per cell=100-200 PFU/cell) was carried out. After this operation, one test group (3 coverslips) was taken out and transferred to a glass dish (d=4.5 cm) holding 5 ml of MEM.2 Fcs containing each concentration of compound.
On the 6th day after seeding, the number of cells per coverslip was determined with a Coulter counter. For each experimental group, the difference in all members between virus-infected cells (V) and mock-infected cells (M) was calculated. The result was expressed in the concentration of the drug giving a (V-M) value of 50% (ED50) for the control (not medicated) group as 100%.

leukemia P 388 = assay: life-prolonging effect upon leukemia P 388 in mice; format: in vivo, BDF1 mice; details: intraperitoneal, median survival time treated/control
Protocol: (1) The procedure of a test on the life-prolonging effect upon leukemia P 388 in mice
One tenth ml of diluted ascitic fluid containing 1×10^5 cells was implanted in BDF1 mice weighing 18 to 25 g. A suspension of the test-compound is injected intraperitoneally at a constant rate of volume of 0.1 ml/10 g body weight. As the detailed experimental method, the Protocols for Screening Chemical Agents (Geran, R. I., Greenberg, N. H., Macdonald, M. M., Schumacher, A. M., and Abbott, B. J.: Protocols for Screening Chemical Agents and Natural Products against Animal Tumors and Other Biological Systems. Cancer Chemotherapy Rept., 3 (Part 3) 7, 1972) is adopted.
The results are recorded in compliance to the T/C % value calculated on the basis of the median survival time of treated to control animals.

KB cells = assay: Inhibition of KB cell multiplication; format: cell-based; details: Homo sapiens, 72 h, cell count on 4th day after seeding, read-out: ED50, inhibition of cell growth
Protocol: (1) Inhibition of KB cell multiplication
2×10^4 cells were suspended in 1 ml of Eagle's Minimal Essential Medium (MEM)+10% fetal calf serum (MEM.10 Fcs) and seeded in a glass dish (d=1.8 cm) containing a round coverslip (d=1.5 cm).
On the first day after seeding, three coverslips (per test group) were taken out and transferred to a single glass dish (d=4.5 cm) holding 5 ml of MEM.10 Fcs containing a verying concentration of the compound. On the 4th day after seeding, the number of cells per coverslip (3 slips for each concentration level) was determined with a Coulter counter. The result was expressed in the concentration of the drug giving a cell count of 50% (ED50) with the average number of cells for the control (not medicated) group on the 4th day being taken as 100%.

AC cells = assay: Inhibition of AC cell multiplication; format: cell-based; details: Rattus norvegicus, 72 h, cell count on 3rd day following replacement of medium, read-out: ED50, inhibition of cell growth
Protocol: (3) Inhibition of Ac cell multiplication
1×10^5 AC cells (2 ml of Eagle's MEM, with 10% fetal calf serum were seeded in a Falcon dish (in. diam. 3.5 cm). On the 24th hour, replacement was made with the above culture medium containing a varying concentration of drug. The number of cells was determined on the 3rd day following the replacement of medium. The pharmacologic effect was expressed in ED50 (the concentration of the drug giving a cell count of 50% for the treated group with the number of cells for the control group being taken as 100%.

Row | SMILES | IC50 (BAV3-infected C34 cells) | T/C(%) (leukemia P 388; 50 mg/kg/day) | T/C(%) (leukemia P 388; 100 mg/kg/day) | T/C(%) (leukemia P 388; 200 mg/kg/day) | IC50 (KB cells) | IC50 (AC cells)
1 | CCOC(=O)C1(F)C(=O)NC(=O)NC1OCC (centres unmarked) [ethyl 5-fluoro-6-ethoxy-1,2,3,4,5,6-hexahydro-2,4-dioxopyrimidine-5-carboxylate] | 0.023 µg/mL (≈ 0.0927 µM) | 130% | 143% | 160% | 2.8 µg/mL (≈ 11.3 µM) | 
2 | COC(=O)C1(F)C(=O)NC(=O)NC1OC (centres unmarked) [methyl 5-fluoro-6-methoxy-1,2,3,4,5,6-hexahydro-2,4-dioxopyrimidine-5-carboxylate] | 0.023 µg/mL (≈ 0.104 µM) | 208% | 217% | 243% | 3 µg/mL (≈ 13.6 µM) | 0.12 µg/mL (≈ 0.545 µM)
